The results in this text go back to patent US20080207694A1, “Hydroxamates as Histone Deacetylase Inhibitors and Pharmaceutical Formulations Containing Them” (priority 2005, published 2008).

The subject of experiment [1] is histone deacetylase (HDAC), nuclear extract of Hela cells. The experiment in a line: Deacetylase activity on nuclear extract of HeLa cells (Fluor de Lys kit). It counts as biochemical, human. As to conditions: percent inhibition relative to control without inhibitor, compound at 0.1 μM. The method, then:
(§1) The activity of the compounds as histone deacetylase (HDAC) inhibitors was measured using an in vitro acetylation assay. The compounds were then evaluated as inhibitors of proliferation of human tumor cell cultures.
Deacetylase Activity on Nuclear Extract of Hela Cells (Human Cervical Cancer Cell)
The assay (Fluor de Lys™ kit, BioMol) is divided into two steps: in the first step the substrate which comprises an acetylated lysine residue is reacted with the nuclear extract (HeLa) containing the enzymatic activity in the presence and absence of inhibitors. In the second step a fluorogenic reagent is added which highlights the deacetylated residues. A reduction in fluorescence is obtained where there has been inhibition of the deacetylase activity. The result is finally expressed as percent inhibition relative to the control without inhibitor at a concentration of 0.1 μM.

Experiment [2] deals with Human colon carcinoma cells HCT-116. In words: Cytotoxic activity on culture of human colon carcinoma cells HCT-116 (Alamar Blue). It counts as cell-based. The following applies: HCT-116 cells, 72 hours after addition of compounds, Alamar Blue viability. The method, then: as §1
24 hours after seeding, the compounds at different concentrations are added. […] 72 hours after addition of the compounds, cell viability is measured by means of the dye Alamar Blue.
Background: Resazurin is reduced to fluorescent resorufin, in cell work by metabolically active cells.

One may read the IC50 as the concentration needed to halve the response being measured. Low values mean higher potency, high ones lower potency. With `CC(C)Oc1ccc(NC(=O)N2CCC(CCCC(=O)NO)CC2)cc1` [Ex 139, 4-(3-Hydroxycarbamoyl-propyl)-piperidine-1-carboxylic acid (4-isopropoxy-phenyl)-amide], in experiment [1], the “% inhib. 0.1 μM” value is recorded as 56%. In experiment [2] (Homo sapiens, HCT-116, 72 h), this compound showed an IC50 of 400 nM.
Turning to `N[C@@H](CC(=O)N1CCC(CCCC(=O)NO)CC1)Cc1ccc2ccccc2c1` [Ex 144, 4-[1-(3-(R)-Amino-4-naphthalen-2-yl-butyryl)-piperidin-4-yl]-N-hydroxy-butyramide], the “% inhib. 0.1 μM” value in experiment [1] came out at 69%. In experiment [2] (Homo sapiens, HCT-116, 72 h), this compound had an IC50 of 240 nM.
As to `N[C@H](CC(=O)N1CCC(CCCC(=O)NO)CC1)Cc1csc2ccccc12` [Ex 146, 4-[1-(3-(S)-Amino-4-benzo[b]thiophen-3-yl-butyryl)-piperidin-4-yl]-N-hydroxy-butyramide], the “% inhib. 0.1 μM” value in experiment [1] is on record as 68%. The IC50 in experiment [2] (Homo sapiens, HCT-116, 72 h) came out at 60 nM.
As for `N[C@@H](CC(=O)N1CCC(CCCC(=O)NO)CC1)c1ccc2ccccc2c1` [Ex 149, 4-[1-(3-(S)-Amino-3-naphthalen-2-yl-propionyl)-piperidin-4-yl]-N-hydroxy-butyramide], the “% inhib. 0.1 μM” value in experiment [1] was found to be 62%. For the same compound, in experiment [2], 130 nM corresponded to half-maximal inhibition (IC50).
On to `O=C(CCCC1CCN(C(=O)Nc2cccc(-c3ccccc3)c2)CC1)NO` [Ex 150, 4-(3-Hydroxycarbamoyl-propyl)-piperidine-1-carboxylic acid biphenyl-3-ylamide], for which, in experiment [1], the “% inhib. 0.1 μM” value worked out at 57%. This compound also yielded an IC50 in experiment [2] (Homo sapiens, HCT-116, 72 h) of 180 nM.
On to `O=C(CCCC1CCN(C(=O)Nc2ccc(-c3ccccn3)cc2)CC1)NO` [Ex 151, 4-(3-Hydroxycarbamoyl-propyl)-piperidine-1-carboxylic acid (4-pyridin-2-yl-phenyl)-amide], for which the “% inhib. 0.1 μM” value in experiment [1] was 50%. This compound displayed an IC50 in experiment [2] (Homo sapiens, HCT-116, 72 h) of 100 nM.
Taken in the same sequence, the figures for `N[C@H](CC(=O)N1CCC(CCCC(=O)NO)CC1)Cc1cccc2ccccc12` [Ex 154, 4-[1-(3-(S)-Amino-4-naphthalen-1-yl-butyryl)-piperidin-4-yl]-N-hydroxy-butyramide] were 82% and 530 nM.
Regarding `O=C(CCCC1CCN(C(=O)NCc2csc3ccccc23)CC1)NO` [Ex 157, N-(benzo[b]thiophen-3-ylmethyl)-4-(4-(hydroxyamino)-4-oxobutyl)piperidine-1-carboxamide], the “% inhib. 0.1 μM” value in experiment [1] came to 68%. Also, in experiment [2] (Homo sapiens, HCT-116, 72 h), the IC50 came to 600 nM.
With `N[C@@H](CC(=O)N1CCC(CCCC(=O)NO)CC1)c1cccc2ccccc12` [Ex 158, 4-[1-(3-(S)-Amino-3-naphthalen-1-yl-propionyl)-piperidin-4-yl]-N-hydroxy-butyramide], the “% inhib. 0.1 μM” value in experiment [1] is listed as 60%. Also, the midpoint of inhibition in experiment [2] (Homo sapiens, HCT-116, 72 h), the IC50, lay at 900 nM.
In the case of `N[C@H](CC(=O)N1CCC(CCCC(=O)NO)CC1)c1cccc2ccccc12` [Ex 159, 4-[1-(3-(R)-Amino-3-naphthalen-1-yl-propionyl)-piperidin-4-yl]-N-hydroxy-butyramide], the “% inhib. 0.1 μM” value in experiment [1] is on record as 79%. The IC50 in experiment [2] (Homo sapiens, HCT-116, 72 h) is 200 nM.
With `COc1c(NC(=O)N2CCC(CCCC(=O)NO)CC2)ccc2ccccc12` [Ex 160], in experiment [1], the “% inhib. 0.1 μM” value amounted to 67%. Besides, the IC50 in experiment [2] is 200 nM.
In the case of `COc1cc2ccccc2cc1NC(=O)N1CCC(CCCC(=O)NO)CC1` [Ex 161], the “% inhib. 0.1 μM” value in experiment [1] amounted to 76%. In addition, in experiment [2], the IC50 was determined as 30 nM.
On to `O=C(CCCC1CCN(C(=O)CCNCc2ccccc2)CC1)NO` [Ex 164, 4-[1-(3-Benzylamino-propionyl)-piperidin-4-yl]-N-hydroxy-butyramide], for which the “% inhib. 0.1 μM” value in experiment [1] is reported as 51%. Moreover, the IC50 in experiment [2] (Homo sapiens, HCT-116, 72 h) worked out at 600 nM.
For the compound `O=C(CCCC1CCN(C(=O)Nc2ccc(-c3cccc(F)c3)cc2)CC1)NO` [Ex 165, 4-(3-Hydroxycarbamoyl-propyl)-piperidine-1-carboxylic acid (3′-fluoro-biphenyl-4-yl)-amide], the “% inhib. 0.1 μM” value in experiment [1] is recorded as 64%. In experiment [2] (Homo sapiens, HCT-116, 72 h), this compound registered an IC50 of 700 nM.
On to `N[C@@H](CC(=O)N1CCC(CCCC(=O)NO)CC1)c1cccc(Cl)c1` [Ex 168, 4-{1-[3-(S)-Amino-3-(3-chloro-phenyl)-propionyl]-piperidin-4-yl}-N-hydroxy-butyramide], for which the “% inhib. 0.1 μM” value in experiment [1] was found to be 55%. Half-maximal inhibition in experiment [2] (IC50) required 90 nM.
In the case of `O=C(CCCC1CCN(C(=O)NCCCc2c[nH]c3ccccc23)CC1)NO` [Ex 170, N-(3-(1H-indol-3-yl)propyl)-4-(4-(hydroxyamino)-4-oxobutyl)piperidine-1-carboxamide], the “% inhib. 0.1 μM” value in experiment [1] was determined as 51%. This compound registered an IC50 in experiment [2] (Homo sapiens, HCT-116, 72 h) of 200 nM.
For the compound `N[C@@H](CC(=O)N1CCC(CCCC(=O)NO)CC1)c1cccc(Cl)c1` [Ex 171, 4-{1-[3-(S)-Amino-3-(3-chloro-phenyl)-propionyl]-piperidin-4-yl}-N-hydroxy-butyramide], the “% inhib. 0.1 μM” value in experiment [1] was 45%. In addition, inhibition in experiment [2] was half-maximal at 400 nM (IC50).
With `N[C@@H](CC(=O)N1CCC(CCCC(=O)NO)CC1)c1cccc(F)c1` [Ex 175, 4-{1-[3-(S)-Amino-3-(3-fluoro-phenyl)-propionyl]-piperidin-4-yl}-N-hydroxy-butyramide], the “% inhib. 0.1 μM” value in experiment [1] is given as 70%. This compound returned an IC50 in experiment [2] (Homo sapiens, HCT-116, 72 h) of 600 nM.
As for `O=C(CCCC1CCN(C(=O)Nc2ccc(-c3csnn3)cc2)CC1)NO` [Ex 178, 4-(3-Hydroxycarbamoyl-propyl)-piperidine-1-carboxylic acid (4-[1,2,3]thiadiazol-4-yl-phenyl)-amide], in experiment [1], the “% inhib. 0.1 μM” value is listed as 45%. Further, inhibition in experiment [2] (Homo sapiens, HCT-116, 72 h) was half-maximal at 300 nM (IC50).
Take `Cc1cc(C)n(-c2ccc(NC(=O)N3CCC(CCCC(=O)NO)CC3)cc2)n1` [Ex 179, 4-(3-Hydroxycarbamoyl-propyl)-piperidine-1-carboxylic acid [4-(3,5-dimethyl-pyrazol-1-yl)-phenyl]-amide]: in experiment [1], the “% inhib. 0.1 μM” value is 70%. In experiment [2] (Homo sapiens, HCT-116, 72 h), the IC50 stood at 500 nM.
For the compound `Nc1ccc2cc(NC(=O)N3CCC(CCCC(=O)NO)CC3)ccc2c1` [Ex 181, N-(6-aminonaphthalen-2-yl)-4-(4-(hydroxyamino)-4-oxobutyl)piperidine-1-carboxamide], the “% inhib. 0.1 μM” value in experiment [1] was found to be 64%. In experiment [2] (Homo sapiens, HCT-116, 72 h), this compound gave an IC50 of 470 nM.
For `O=C(CCCC1CCN(C(=O)CCNc2cccc3ccccc23)CC1)NO` [Ex 186, 4-[1-(3-(1)Naphtylamino-propionyl)-piperidin-4-yl]-N-hydroxy-butyramide], the “% inhib. 0.1 μM” value in experiment [1] turned out to be 81%. Further, the IC50 in experiment [2] is 360 nM.
As to `O=C(CCCC1CCN(C(=O)NCc2csc3ccc(Cl)cc23)CC1)NO` [Ex 188, N-(5-Chloro-benzo[b]thiophen-3-ylmethyl)-4-(4-(hydroxyamino)-4-oxobutyl)piperidine-1-carboxamide], the “% inhib. 0.1 μM” value in experiment [1] is on record as 50%. In experiment [2] (Homo sapiens, HCT-116, 72 h), this compound returned an IC50 of 210 nM.
Consider `O=C(CCCC1CCN(C(=O)NCc2ccc(-c3ccsc3)cc2)CC1)NO` [Ex 190, N-(4-(thiophen-3-yl)benzyl)-4-(4-(hydroxyamino)-4-oxobutyl)piperidine-1-carboxamide], for which the “% inhib. 0.1 μM” value in experiment [1] was found to be 69%. Moreover, half-maximal inhibition in experiment [2] (Homo sapiens, HCT-116, 72 h) (IC50) was put at 480 nM.
Turning to `O=C(CCCC1CCCN(C(=O)Nc2ccccc2)C1)NO` (centres unmarked) [Ex 192, 3-(4-(hydroxyamino)-4-oxobutyl)-N-phenylpiperidine-1-carboxamide], the “% inhib. 0.1 μM” value in experiment [1] was 68%. Further, half-maximal inhibition in experiment [2] (Homo sapiens, HCT-116, 72 h) (IC50) required 600 nM.
With `N[C@@H](CC(=O)N1CCC(CCCC(=O)NO)CC1)C(=O)NCc1ccccc1` [Ex 193, 2-(s)-Amino-N-benzyl-4-[4-(3-hydroxycarbamoyl-propyl)-piperidin-1-yl]-4-oxo-butyramide], the “% inhib. 0.1 μM” value in experiment [1] worked out at 50%. This compound gave an IC50 in experiment [2] (Homo sapiens, HCT-116, 72 h) of 900 nM.
On to `O=C(CCCC1CCN(C(=O)Nc2cc3ccccc3s2)CC1)NO` [Ex 195, N-(benzo[b]thiophene)-4-(4-(hydroxyamino)-4-oxobutyl)piperidine-1-carboxamide], for which, in experiment [1], the “% inhib. 0.1 μM” value is recorded as 42%. Besides, in experiment [2], half-maximal inhibition (IC50) required 400 nM.
`O=C(CCCC1CCN(C(=O)Nc2cccc3c2CCCC3)CC1)NO` [Ex 198, 4-(3-Hydroxycarbamoyl-propyl)-piperidine-1-carboxylic acid (5,6,7,8-tetrahydro-naphthalen-1-yl)-amide]: in experiment [1], the “% inhib. 0.1 μM” value came out at 77%. This compound also registered a 50% inhibitory concentration (IC50) in experiment [2] (Homo sapiens, HCT-116, 72 h) of 400 nM.
